{
  "source": "patent US20230176038A1",
  "about": "“Methods for Identifying Modulators of Insect Transient Receptor Potential Channels” (BASF Corporation, priority 2019, published 2023)",
  "molecules": {"B1": {"name": "Drosophila melanogaster Nanchung fused at its carboxyl terminus with HA tags and mCherry fluorescent protein (other)", "chain": "MGNTESNVTSGVKKQAGVSTQALYKFVNLKGGGLLVDMMKRACQTKQFAEIDHAIKTKVEPFLYNKGAGRYFPISKLVLLRNRDRPRTRQLPEIRALENPDDDFNIHDYCPEVSEAEYISNPTAYRFVCWDLNMRGAVGETILHLCLLNASSLHADLAKRLLKFYPKLILDIYMSDEYYGESVLHIAIVNEDPAMVKYLLDANADVQERCCGAFMSAEDTKFSRTDSPDHEYVALCPMTNYDGYVYWGEYPLSFAACLSQEECFRLVLARGADPDFQDTNGNTVLHMLVIYEKIEMFDVGYEVGTNIHIKNIQNLTPLTLAAKLGRVEMFFHVMSIEREIYWQLGSITCAAYPLLMIDTINEETGNINKDSVLNFVVFGDKLEHLELLDGVVIDLLKTKWDTFCKSRFYKQFYMFALYFLISLFSFILRPGPDAKDEDEDGANSTTAKSDLYRQNGSDSYHLHSKRATMTTEYKTFWLNFTEYYDPSEVEVLPAWWESYAQCPLMNLESDLAKLRIMAELLNFVGAILYLLVALREARFLGLKMFIENLMTAPSRVMFLFSCALMMTIPWLRVSCLTEIDDHVTVVIMLTTAPYFLFFCRGFKTVGPFVVMIYRMVMGDLLRFVSIYLVFVMGFSQAFYIIFLTFDNPSSPEDQDAESNPMPSPMESIVAMFLMSLTNFGDYYGAMVSTQHEYEAKILFFLFMVIVSVLLVNMLIAMMGNTYQKIAEIRNEWQRQWARIVLVVERSVPPAERLKNFMQYSQSMSDGRRALVLRLNMTEEKEEMKEVQEMKRIHQRFAKKRQMEREARALRRQQEYEKFFGTAPKSECSDNNNF", "notes": "TRPV channel subunit expressed in hamster CHO-K1 cells by adenovirus; For the co-immunoprecipitation the cells were lysed in Triton X-100 buffer; also called Nan-HA; HA-tagged Nanchung; not shown: HA tags and mCherry fused in-frame at the carboxyl terminus"}},
  "key": {"[1]": {"target": "T1, complexes formed by Nanchung and Water witch proteins (Wtrw + Nan) (Drosophila melanogaster, UniProt Q9VHY7+Q9VUD5)", "T1 construct": "adenoviral co-expression in CHO-K1 cells, fluo-4 calcium FLIPR", "T1 sequence (Q9VUD5 1-833)": "B1 chain", "T1 sequence (Q9VHY7 1-986)": "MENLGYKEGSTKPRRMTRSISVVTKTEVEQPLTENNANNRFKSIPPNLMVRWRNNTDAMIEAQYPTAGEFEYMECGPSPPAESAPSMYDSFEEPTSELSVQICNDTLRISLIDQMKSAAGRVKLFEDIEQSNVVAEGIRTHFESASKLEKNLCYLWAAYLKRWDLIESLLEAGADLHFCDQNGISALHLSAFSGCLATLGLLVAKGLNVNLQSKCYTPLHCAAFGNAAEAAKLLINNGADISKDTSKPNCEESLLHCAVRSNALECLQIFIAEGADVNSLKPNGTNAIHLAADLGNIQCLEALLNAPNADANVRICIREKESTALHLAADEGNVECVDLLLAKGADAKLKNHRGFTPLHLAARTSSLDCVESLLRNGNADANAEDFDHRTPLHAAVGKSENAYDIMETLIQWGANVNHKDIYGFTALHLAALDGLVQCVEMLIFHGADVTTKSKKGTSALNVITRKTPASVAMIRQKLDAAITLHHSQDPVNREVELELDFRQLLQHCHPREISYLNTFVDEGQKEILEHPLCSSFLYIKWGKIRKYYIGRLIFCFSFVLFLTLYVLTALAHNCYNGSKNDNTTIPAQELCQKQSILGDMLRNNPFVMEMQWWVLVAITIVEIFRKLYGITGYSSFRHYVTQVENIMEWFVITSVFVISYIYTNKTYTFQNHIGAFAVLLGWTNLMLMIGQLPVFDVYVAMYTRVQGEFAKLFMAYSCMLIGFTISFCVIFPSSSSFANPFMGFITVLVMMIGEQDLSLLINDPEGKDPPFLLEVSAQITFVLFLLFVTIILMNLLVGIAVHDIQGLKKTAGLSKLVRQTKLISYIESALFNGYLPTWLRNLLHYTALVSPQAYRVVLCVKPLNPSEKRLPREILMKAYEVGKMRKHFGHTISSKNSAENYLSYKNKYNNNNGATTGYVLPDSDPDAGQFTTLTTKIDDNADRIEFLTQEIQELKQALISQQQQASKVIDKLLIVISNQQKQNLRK", "test": "Calcium mobilization (fluo-4AM, FLIPR-TETRA) in CHO-K1 cells co-expressing Water witch and Nanchung", "assay_type": "cell-based", "conditions": "FIG. 2B; hamster CHO-K1 cells, adenovirus; Wtrw (SEQ ID NO 63) C-terminal FLAG/AcGFP, Nan (SEQ ID NO 7) C-terminal HA/mCherry; fluo-4AM, 20 mM CaCl2, 0.2% DMSO, 10 min; read-out: Wtrw + Nan (Water witch:Nanchung complex) EC50 (calcium response)"}, "[2]": {"tested_on": "Nanchung and Water witch (Nan + Wtrw) complexes", "test": "Calcium mobilization (fluo-4, FLIPR) in CHO-K1 cells co-expressing Nanchung and Water witch", "conditions": "for Ca2+ mobilization response: CHO-K1 cells co-expressing Nanchung and Water witch", "text": "(§1) DNAs encoding for tagged TRP channels were delivered into CHO-K1 cells using adenoviruses. Adenovirus-mediated gene delivery allowed for expression of the gene of interest, optimize expression levels and stoichiometry of subunits, as well as prevention of possible toxic effects of insect TRP channels by maintaining virus-infected cells at room temperature.\n(§2) To test the hypothesis that Water witch may also be involved in the action of PM and AP, Water witch was expressed in CHO-K1 cells either alone or in combination with Nanchung. Given that TRP channels are permeable for Ca2+, cell responces were measured by monitoring Ca2+ mobilization using Ca2+ sensitive fluorescent probe FLUO4.\n(§3) Hamster CHO-K1 cells (ATCC ® CCL-61TM) were infected with adenoviruses expressing TRP channels individually or in combinations. The cells were kept overnight at 37° C., followed by 3 days at 25° C. The medium was changed two days after seeding. Calcium mobilization was detected using fluorescent calcium probe fluo-4AM (Life Technologies) and measured by FLIPR-TETRA instrument (Molecular Devices, Sunnyvale, CA). The cells were loaded with 50 µl of Hank’s buffered salt solution (HBSS) containing 4 µM fluo-4AM, 5 mM probenecid, 20 mM CaCl2, and 0.02% pluoronic for 2 hours at 25° C. The dye was then discarded, 50 µl of HBSS were added. The test compounds were dissolved in DMSO and added to the cells in 50 µl HBSS, yielding a final DMSO concentration of 0.2%. Fluorescence was monitored for 10 minutes at 1 second intervals at 470-495 nm/515-575 nm excitation/emission wavelengths. EC50 values were calculated using GraphPad Prism (GraphPad Software)."}, "Nanchung (Nan) [3]": {"tested_on": "Nanchung (Nan)", "conditions": "previously shown; cited from earlier work"}, "[4]": {"target": "Nanchung (Nan) protein alone (Drosophila melanogaster, UniProt A0ACM8PYI9)", "test": "[3H]-afidopyropen saturation binding to membranes of CHO-K1 cells expressing Nanchung alone", "conditions": "membranes from CHO-K1 cells expressing Nanchung individually; read-out: Kd, specific binding of tritium-labeled afidopyropen"}, "[5]": {"tested_on": "Water witch (Wtrw) protein alone", "test": "[3H]-afidopyropen saturation binding to membranes expressing Water witch alone", "design": "species or system Drosophila melanogaster"}, "[6]": {"target": "complexes formed by Nanchung protein and Water witch protein (Nan + Wtrw) (Drosophila melanogaster, UniProt A0ACM8PYI9)", "test": "biochemical", "assay_type": "binding", "conditions": "for Inhibition of binding of tritiated afidopyropen: membranes from cells co-expressing Nanchung and Water witch"}, "[7]": {"tested_on": "Nanchung and Inactive (Nan + Iav) complexes", "test": "Calcium mobilization in CHO-K1 cells co-expressing Nanchung and Inactive", "assay_type": "cell-based, Drosophila melanogaster"}, "Nanchung (Nan) [8]": {"tested_on": "Nanchung (Nan)", "test": "Calcium mobilization in CHO-K1 cells expressing Nanchung alone", "assay_type": "cell-based, Drosophila melanogaster", "conditions": "CHO-K1 cells expressing Nanchung individually"}, "Water witch (Wtrw)": {"tested_on": "Water witch (Wtrw)", "test": "Calcium mobilization in CHO-K1 cells expressing Water witch alone", "conditions": "CHO-K1 cells expressing Water witch individually", "text": "as §1, §2, §3"}, "[9]": {"tested_on": "Inactive and Water witch (Iav + Wtrw)", "test": "Calcium mobilization in CHO-K1 cells co-expressing Inactive and Water witch", "assay_type": "cell-based, Drosophila melanogaster"}, "[10]": {"tested_on": "parental mammalian cells (CHO-K1)", "test": "Calcium mobilization in parental mammalian cells", "assay_type": "cell-based, hamster", "conditions": "prior to infection"}, "[11]": {"tested_on": "complexes formed by Nanchung protein and Inactive protein", "test": "[3H]-afidopyropen competition binding to membranes of cells co-expressing Nanchung and Inactive", "design": "species or system Drosophila melanogaster", "conditions": "membranes from cells co-expressing Nanchung and Inactive"}, "[12]": {"target": "T2, Drosophila melanogaster Water witch fused at its carboxyl terminus with FLAG tags and AcGFP fluorescent … (Drosophila melanogaster)", "T2 construct": "TRPA channel subunit expressed in hamster CHO-K1 cells by adenovirus; also called Wtrw-FLAG; FLAG-tagged Water witch; not shown: FLAG tags and AcGFP fused in-frame at the carboxyl terminus", "T2 chain": "T1 sequence (Q9VHY7 1-986)", "test": "co-immunoprecipitation from lysates of adenovirus-transduced CHO-K1 cells; anti-FLAG M2 affinity gel, Western blot with anti-HA"}},
  "data": [
    {"molecule": "C[C@]1(COC(=O)C2CC2)[C@@H]2C[C@H](O)[C@@]3(C)Oc4cc(-c5cccnc5)oc(=O)c4[C@H](O)[C@@H]3[C@@]2(C)CC[C@@H]1OC(=O)C1CC1", "note": "[AP, afidopyropen]", "values": [
      {"measurement": "EC50", "setting": "[1]", "result": 39, "unit": "nM"}
    ]},
    {"molecule": "NC(=O)c1cnccc1C(F)(F)F", "note": "[TFNA-AM, 4-trifluoronicotinamide]", "values": [
      {"measurement": "Ca2+ mobilization response", "setting": "[2]", "result": "without effect"}
    ]},
    {"molecule": "C[C@]1(COC(=O)C2CC2)[C@@H]2C[C@H](O)[C@@]3(C)Oc4cc(-c5cccnc5)oc(=O)c4[C@H](O)[C@@H]3[C@@]2(C)CC[C@@H]1OC(=O)C1CC1", "note": "[afidopyropen]", "values": [
      {"measurement": "Response of Nanchung alone to stimulation", "setting": "Nanchung (Nan) [3]", "result": "does not respond"},
      {"measurement": "Kd", "setting": "[4]", "result": 4.5, "unit": "nM"},
      {"measurement": "Binding of tritiated afidopyropen", "setting": "[5]", "result": "negligible"},
      {"measurement": "Kd", "setting": "[6]", "result": 0.048, "unit": "nM"},
      {"measurement": "Ca2+ mobilization response", "setting": "[2]", "result": "elicited calcium mobilization"}
    ]},
    {"molecule": "C=CCN=C=S", "note": "[allyl isothiocyanate]", "values": [
      {"measurement": "Ca2+ mobilization response", "setting": "[7]", "result": "not responsive"},
      {"measurement": "Ca2+ mobilization response", "setting": "Nanchung (Nan) [8]", "result": "nor in cells expressing Nancung (Nan)"},
      {"measurement": "Ca2+ mobilization response", "setting": "Water witch (Wtrw)", "result": "efficiently activated"},
      {"measurement": "Ca2+ mobilization response", "setting": "[2]", "result": "efficiently activated"},
      {"measurement": "Ca2+ mobilization response", "setting": "[9]", "result": "activation of Ca2+ mobilization"},
      {"measurement": "Ca2+ mobilization response", "setting": "[10]", "result": "not in parental mammalian cells"}
    ]},
    {"molecule": "O=CC=Cc1ccccc1", "note": "[cinnamaldehyde]", "values": [
      {"measurement": "Ca2+ mobilization response", "setting": "[7]", "result": "not responsive"},
      {"measurement": "Ca2+ mobilization response", "setting": "Nanchung (Nan) [8]", "result": "nor in cells expressing Nancung (Nan)"},
      {"measurement": "Ca2+ mobilization response", "setting": "Water witch (Wtrw)", "result": "efficiently activated"},
      {"measurement": "Ca2+ mobilization response", "setting": "[2]", "result": "efficiently activated"},
      {"measurement": "Ca2+ mobilization response", "setting": "[9]", "result": "activation of Ca2+ mobilization"},
      {"measurement": "Ca2+ mobilization response", "setting": "[10]", "result": "not in parental mammalian cells"}
    ]},
    {"molecule": "N#CCNC(=O)c1cnccc1C(F)(F)F", "note": "[flonicamid]", "values": [
      {"measurement": "Ca2+ mobilization response", "setting": "[2]", "result": "without effect"}
    ]},
    {"molecule": "NC(=O)c1cccnc1", "note": "[nicotinamide]", "values": [
      {"measurement": "Inhibition of binding of tritiated afidopyropen", "setting": "[11]", "result": "completely inhibited binding"},
      {"measurement": "Ca2+ mobilization response", "setting": "[7]", "result": "evoked Ca2+ response"},
      {"measurement": "Inhibition of binding of tritiated afidopyropen", "setting": "[6]", "result": "completely inhibited binding"},
      {"measurement": "Ca2+ mobilization response", "setting": "Water witch (Wtrw)", "result": "not in the cells expressing these proteins individually"},
      {"measurement": "Ca2+ mobilization response", "setting": "[2]", "result": "evoked Ca2+ response"},
      {"measurement": "Potency and efficacy of activation, Nanchung:Inactive compared with Nanchung:Water witch complexes", "setting": "[2]; dose response of calcium responses, FIG. 4B", "result": "nearly identical potency and efficacy"},
      {"measurement": "Ca2+ mobilization response", "setting": "[10]", "result": "not in parental mammalian cells"}
    ]},
    {"molecule": "CC1=NNC(=O)N(/N=C/c2cccnc2)C1", "note": "[pymetrozine]", "values": [
      {"measurement": "Response of Nanchung alone to stimulation", "setting": "Nanchung (Nan) [3]", "result": "does not respond"},
      {"measurement": "Inhibition of binding of tritiated afidopyropen", "setting": "[11]", "result": "completely inhibited binding"},
      {"measurement": "Inhibition of binding of tritiated afidopyropen", "setting": "[6]", "result": "completely inhibited binding"},
      {"measurement": "Ca2+ mobilization response", "setting": "[2]", "result": "elicited calcium mobilization"}
    ]},
    {"molecule": "B1", "values": [
      {"measurement": "binding result", "setting": "[12]", "result": "binds"}
    ]}
  ]
}
